Read-outs that look alike come from different tables or passages of the source.
Experiments:
[1] = target: full-length human PLD1 (Homo sapiens (Human), UniProt Q13393); assay: Evaluation of human PLD1 enzyme inhibitory activity (Amplex Red / choline oxidase fluorescence); format: biochemical
Method: A method for measuring human PLD1 enzyme inhibitory activity using an enzyme in which a FLAG-tag is added to the N-terminus of full-length human PLD1 (1-1036 amino acids) is shown below.
(§1) DNA fragment in which a FLAG-tag sequence is added to the 5′-end of full-length human PLD1 was amplified by PCR method, using commercially available human PLD1 gene (Promega KK) as a template. The amplified DNA fragment was fused with vector pVL1393 for baculovirus production (Pharmingen) digested with BamHI and EcoRI, using In-Fusion HD Cloning Kit (Takara Bio). The full-length human PLD1-expression plasmid DNA for baculovirus was isolated from Escherichia coli DH5a (TOYOBO) transformed with the obtained In-Fusion reaction product. Next, DNA fragment in which a FLAG-tag sequence is added to the 5′-end of full-length human PLD1 was amplified by PCR method, using the full-length human PLD1-expression plasmid DNA for baculovirus as a template. The amplified DNA fragment was fused with a DNA fragment in which a linker sequence is introduced into pcDNA3.4-TOPO (Life Technologies), using In-Fusion HD Cloning Kit (Takara Bio). The full-length human PLD1-expression plasmid DNA for animal cells was isolated from Escherichia coli DH5a transformed with the obtained In-Fusion reaction product. The base sequence of the full-length human PLD1 cloned into vector was determined by a Dye Terminator method using BigDye Terminator v3.1 Cycle Sequencing Kit (Applied Biosystems). The determined sequence was a sequence in which the FLAG-tag sequence was inserted at the 5′-end of the full-length human PLD1 (GenBank Accession Number: NM_001130081).
(§2) Expi293F cells (Life Technologies) were cultured with shaking using Expi293 Expression Medium (Life Technologies) as a medium at 37° C. in the presence of 8% CO2. The gene introduction reagent PEI was prepared by dissolving Polyethylenimine Max (nominally MW 40,000) (Polysciences) in MilliQ water, adjusting the pH of the solution to 7.0 with NaOH to obtain a 1 mg/mL solution, and then filtering the solution through 0.22 μm filter. The full-length human PLD1-expression plasmid DNA for animal cells was transfected into Expi293F cells using PEI, and after 48 hours of shaking culture, the cells were collected and stored at −80° C.
(§3) To the full-length human PLD1-expressed cells was added a Homogenate buffer (20 mmol/L Na-phosphate pH 7.5, 250 mmol/L NaCl, 1 mmol/L MgCl2, 1% β-OG, 0.05 mmol/L DTT+complete EDTA-free (Roche Diagnostics K.K.)), and the cells were lysed by Microfluidizer Processor M-110EH (Mizuho Kogyo Co., Ltd.). The lysate was centrifuged at 10,100×g at 4° C. for 15 minutes, and the supernatant was collected and filtered through 0.45 μm filter. To the centrifuged supernatant was added ANTI-FLAG M2 Affinity Gel (SIGMA-Aldrich) resin equilibrated with a Homogenate buffer, and the mixed solution was stirred at 4° C. for 1 hr or more. The mixed solution was loaded onto Poly-Prep column, and the resin was washed with a Wash buffer (20 mmol/L Na-phosphate pH 7.5, 150 mmol/L NaCl, 1 mmol/L MgCl2, 0.02% Triton, 0.05 mmol/L DTT). A Wash buffer containing 400 μg/mL DYKDDDDK Peptide (Scrum Inc.) was added to the column to elute the protein bound to the resin. The eluted fractions were subjected to SDS-PAGE followed by CBB staining to identify the fractions containing the full-length human PLD1. The eluted fractions of the full-length human PLD1 were collected and concentrated using Amicon Ultra-15 100k (Merck Millipore). The concentrated fractions were collected, flash-frozen in liquid nitrogen and stored at −80° C.
(§4) A DMSO or test substance solution (the DMSO final concentration: 5%) prepared by diluting DMSO or test substance with an Assay buffer (50 mmol/L HEPES pH 7.5, 80 mmol/L KCl, 3 mmol/L EGTA, 3.6 mmol/L MgCl2, 0.01% NP-40, 0.1% BSA), and the solution was added to a 384 well Assay Plate (Black, Polystyrene, Non-Treated, Cat No. 3573, Corning) by 5 μL/well. […]

[2] = target: full-length human PLD2 (Homo sapiens (Human), UniProt O14939); assay: Evaluation of human PLD2 enzyme inhibitory activity (Amplex Red / choline oxidase fluorescence); format: biochemical
Method: A method for measuring human PLD2 enzyme inhibitory activity using an enzyme in which a FLAG-tag is added to the N-terminus of full-length human PLD2 (1-933 amino acids) is shown below.
as §1, with “PLD2” for “PLD1”, “PLD2-expression” for “PLD1-expression”, “NM 002663).” for “NM_001130081).”
as §2, with “PLD2-expression” for “PLD1-expression”
as §3, with “PLD2-expressed” for “PLD1-expressed”, “PLD2.” for “PLD1.”, “PLD2” for “PLD1”
as §4

[3] = full-length human PLD1 enzyme, read-out: PLD1 IC50
[4] = full-length human PLD2 enzyme, read-out: PLD2 IC50

Chain of full-length human PLD1 (Q13393 other isoform, or with tags, fused parts or gaps): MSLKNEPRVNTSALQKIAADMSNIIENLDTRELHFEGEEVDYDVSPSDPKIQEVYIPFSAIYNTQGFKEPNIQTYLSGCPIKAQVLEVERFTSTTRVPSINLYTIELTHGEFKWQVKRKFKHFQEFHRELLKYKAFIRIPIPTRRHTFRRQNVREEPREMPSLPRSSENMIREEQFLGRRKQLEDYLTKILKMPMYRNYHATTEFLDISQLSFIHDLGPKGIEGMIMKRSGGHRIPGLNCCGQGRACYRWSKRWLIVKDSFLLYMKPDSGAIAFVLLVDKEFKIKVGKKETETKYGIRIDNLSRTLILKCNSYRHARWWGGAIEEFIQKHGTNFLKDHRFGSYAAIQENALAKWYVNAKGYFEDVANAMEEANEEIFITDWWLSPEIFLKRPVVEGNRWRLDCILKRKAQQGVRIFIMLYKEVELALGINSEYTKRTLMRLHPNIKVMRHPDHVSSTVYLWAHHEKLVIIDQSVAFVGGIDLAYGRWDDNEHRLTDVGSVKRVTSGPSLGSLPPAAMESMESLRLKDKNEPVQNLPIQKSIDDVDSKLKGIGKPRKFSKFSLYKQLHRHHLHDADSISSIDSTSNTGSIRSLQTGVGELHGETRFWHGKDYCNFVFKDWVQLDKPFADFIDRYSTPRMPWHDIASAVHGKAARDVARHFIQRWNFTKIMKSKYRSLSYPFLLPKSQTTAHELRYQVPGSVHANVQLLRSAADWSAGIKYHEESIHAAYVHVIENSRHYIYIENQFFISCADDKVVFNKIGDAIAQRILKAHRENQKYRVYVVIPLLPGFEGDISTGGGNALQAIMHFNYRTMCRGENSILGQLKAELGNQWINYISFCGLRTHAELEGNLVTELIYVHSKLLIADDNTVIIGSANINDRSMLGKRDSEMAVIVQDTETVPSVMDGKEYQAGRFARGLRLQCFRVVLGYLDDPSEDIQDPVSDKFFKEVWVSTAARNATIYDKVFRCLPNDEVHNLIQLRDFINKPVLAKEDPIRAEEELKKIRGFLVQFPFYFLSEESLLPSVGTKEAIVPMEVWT
Chain of full-length human PLD2 (O14939 whole entry, the tested form may be a part): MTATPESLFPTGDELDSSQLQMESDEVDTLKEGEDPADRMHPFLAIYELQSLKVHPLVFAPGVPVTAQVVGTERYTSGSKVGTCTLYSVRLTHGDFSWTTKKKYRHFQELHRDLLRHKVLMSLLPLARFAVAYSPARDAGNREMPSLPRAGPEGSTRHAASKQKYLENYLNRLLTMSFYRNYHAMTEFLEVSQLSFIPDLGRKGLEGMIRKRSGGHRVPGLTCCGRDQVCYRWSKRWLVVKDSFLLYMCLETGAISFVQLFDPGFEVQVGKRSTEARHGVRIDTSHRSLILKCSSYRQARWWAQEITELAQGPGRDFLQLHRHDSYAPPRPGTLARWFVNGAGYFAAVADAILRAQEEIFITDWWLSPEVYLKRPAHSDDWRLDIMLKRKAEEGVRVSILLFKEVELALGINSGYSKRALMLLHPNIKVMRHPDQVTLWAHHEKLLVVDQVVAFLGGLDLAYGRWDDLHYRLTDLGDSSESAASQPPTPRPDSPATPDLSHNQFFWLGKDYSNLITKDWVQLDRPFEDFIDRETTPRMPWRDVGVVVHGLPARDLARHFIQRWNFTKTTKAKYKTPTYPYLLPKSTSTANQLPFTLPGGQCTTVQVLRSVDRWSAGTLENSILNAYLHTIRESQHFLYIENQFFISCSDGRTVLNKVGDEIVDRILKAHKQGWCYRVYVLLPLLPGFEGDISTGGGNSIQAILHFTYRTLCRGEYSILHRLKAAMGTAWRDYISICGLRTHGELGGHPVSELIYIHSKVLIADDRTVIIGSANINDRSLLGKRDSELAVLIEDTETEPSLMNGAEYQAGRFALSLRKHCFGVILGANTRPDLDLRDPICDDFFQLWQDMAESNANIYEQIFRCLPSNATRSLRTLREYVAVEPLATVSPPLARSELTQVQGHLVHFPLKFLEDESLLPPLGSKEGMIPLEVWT

Compound | IC50 [1, 3] | IC50 [2, 4] | further results
C[C@@H](C[C@H]1CC[C@]2(CC1)OC(=O)NN=C2c1ccc(C(C)(C)O)cc1Br)NC(=O)c1cc(Cl)no1 [Example 97] | < 0.01 µM | < 0.01 µM | 
[2H]C([2H])([2H])NC(=O)C(=O)N[C@@H](C)C[C@]1(C#N)CC[C@@]2(CC1)OC(=O)NN=C2c1cc(OC(F)F)ccc1Br [Example 2-113] |  |  | IC50 ([1]; column 1 of continuation tables 2-12 to 2-14, read-out: human PLD1 enzyme inhibitory activity IC50): 0.014 µM; IC50 ([2]; column 2 of continuation tables 2-12 to 2-14, read-out: human PLD2 enzyme inhibitory activity IC50): < 0.01 µM
C[C@@H](CN1CCC2(CC1)OC(=O)NN=C2c1cc(C#N)ccc1Cl)NC(=O)[C@H](O)C(F)(F)F [Example 2-009] | 2.15 µM | 1.04 µM | 
C[C@@H](CN1CCC2(CC1)OC(=O)NN=C2c1ccc(F)cc1Cl)NC(=O)c1cc2cc(F)ccc2o1 [Example 91] | 0.023 µM | 0.015 µM | 
C[C@@H](C[C@H]1CC[C@]2(CC1)OC(=O)NN=C2c1ccc(C#N)cc1Br)NC(=O)c1cc(C2CC2)n[nH]1 [Example 2-072] | 0.014 µM | 0.024 µM | 
CNC(=O)C(=O)N[C@@H](C)C[C@H]1CC[C@]2(CC1)OC(=O)NN=C2c1ccc(OC(F)(F)F)cc1Br [Example 80] | < 0.01 µM | < 0.01 µM | 
Cc1cc(C(=O)N[C@@H](C)C[C@H]2CC[C@]3(CC2)OC(=O)NN=C3c2ccc(F)cc2Cl)[nH]n1 [Example 45] | 0.027 µM | 0.023 µM | 
CNC(=O)C(=O)N[C@@H](C)C[C@H]1CC[C@]2(CC1)OC(=O)NN=C2c1cccc2c1OCC2 [Example 106] | 0.026 µM | 0.048 µM | 
Cc1cc(C(=O)N[C@@H](C)C[C@H]2CC[C@]3(CC2)OC(=O)NN=C3c2ccc(Br)cc2)[nH]n1 [Example 22] | 0.066 µM | 0.049 µM | 
CNC(=O)C(=O)N[C@@H](C)C[C@H]1CC[C@]2(CC1)OC(=O)NN=C2c1cnc(N2CC(C(F)F)C2)cc1C [Example 227] | 0.019 µM | < 0.01 µM | 
Cc1cc(C(=O)N[C@@H](C)C[C@H]2CC[C@]3(CC2)OC(=O)NN=C3c2ccc(C#N)cc2Br)[nH]n1 [Example 199] | 0.01 µM | < 0.01 µM | 
CNC(=O)C(=O)N[C@@H](C)C[C@H]1CC[C@]2(CC1)OC(=O)NN=C2c1cccc(C)c1C [Example 129] | 0.018 µM | < 0.01 µM | 
CNC(=O)C(=O)N[C@@H](C)C[C@]1(C#N)CC[C@@]2(CC1)OC(=O)NN=C2c1cccc(C(F)(F)F)c1Br [Example 2-076] | 0.011 µM | < 0.01 µM | 
Cc1cc(C(=O)N[C@@H](C)CN2CCC3(CC2)OC(=O)NN=C3c2cc(C#N)ccc2Br)[nH]n1 [Example 312] | 0.029 µM | < 0.01 µM | 
CNC(=O)C(=O)N[C@@H](C)C[C@H]1CC[C@]2(CC1)OC(=O)NN=C2c1cnc(C2CC2)cc1C [Example 171] | 0.013 µM | < 0.01 µM | 
COc1cc(C)c(C2=NNC(=O)O[C@]23CC[C@@H](C[C@H](C)NC(=O)OCc2ccccc2)CC3)cn1 [Example 262] | 0.015 µM | < 0.01 µM | 
CNC(=O)C(=O)N[C@@H](C)C[C@H]1CC[C@]2(CC1)OC(=O)NN=C2c1cnc(C(=O)O)cc1C [Example 186] |  |  | inhibition at 10 µM ([1]; 10 μM compound, read-out: PLD1 inhibition rate at 10 μM): 33%; inhibition at 10 µM ([1]; read-out: inhibition rate of PLD1 at 10 μM compound): 33%; inhibition at 10 µM ([2]; 10 μM compound, read-out: PLD2 inhibition rate at 10 μM): 18%; inhibition at 10 µM ([2]; read-out: inhibition rate of PLD2 at 10 μM compound): 18%
CNC(=O)C(=O)N[C@@H](C)C[C@H]1CC[C@]2(CC1)OC(=O)NN=C2c1ccnn1C [Example 68] | 2.03 µM | 4.66 µM | 
CC(=O)N[C@@H](C)C[C@H]1CC[C@]2(CC1)OC(=O)NN=C2c1ccc(F)cc1Br [Example 11] | 0.228 µM | 0.394 µM | 
CNC(=O)C(=O)N[C@@H](C)C[C@H]1CC[C@]2(CC1)OC(=O)NN=C2c1cnc(N2CCCCC2)cc1C [Example 166] | 0.019 µM | < 0.01 µM | 
CNC(=O)C(=O)N[C@@H](C)C[C@H]1CC[C@]2(CC1)OC(=O)NN=C2c1cc(OC(F)(F)F)ccc1Br [Example 294] | 0.011 µM | < 0.01 µM | 
CNC(=O)C(=O)N[C@@H](C)C[C@H]1CC[C@]2(CC1)OC(=O)NN=C2c1cccc2c1OC(F)(F)O2 [Example 118] | 0.05 µM | 0.073 µM | 
CBC(=O)C(=O)N[C@@H](C)C[C@H]1CC[C@]2(CC1)OC(=O)NN=C2c1ccc(S(C)(=O)=O)cc1Cl [Example 51] | 0.033 µM | 0.016 µM | 
Cc1cc(C(=O)N[C@@H](C)C[C@H]2CC[C@]3(CC2)OC(=O)NN=C3c2cnc(N3CC(F)(F)C3)cc2C)[nH]n1 [Example 273] | 0.019 µM | < 0.01 µM | 

Source: patent US20240101572A1, “DIHYDROOXADIAZINONE COMPOUND AND PHARMACEUTICAL USE THEREOF” (Japan Tobacco Inc., priority 2022, published 2024)
